Counter-ions that a name gives are not always drawn. Like-named read-outs stand apart in the source and are kept apart here.
Legend:
Assay type in all cases: biochemical
[1] = biological target: T1, recombinant human MAO-B (monoamine oxidase-B) (Homo sapiens, UniProt P27338); experiment: Activity on recombinant human MAO-B, Amplex Red method, 1 mM benzylamine substrate; conditions: read-out: Inhibitory Activity (IC50, nM) MAO-B
T1 construct: purchased Sigma-Aldrich
T1 sequence (P27338 1-520): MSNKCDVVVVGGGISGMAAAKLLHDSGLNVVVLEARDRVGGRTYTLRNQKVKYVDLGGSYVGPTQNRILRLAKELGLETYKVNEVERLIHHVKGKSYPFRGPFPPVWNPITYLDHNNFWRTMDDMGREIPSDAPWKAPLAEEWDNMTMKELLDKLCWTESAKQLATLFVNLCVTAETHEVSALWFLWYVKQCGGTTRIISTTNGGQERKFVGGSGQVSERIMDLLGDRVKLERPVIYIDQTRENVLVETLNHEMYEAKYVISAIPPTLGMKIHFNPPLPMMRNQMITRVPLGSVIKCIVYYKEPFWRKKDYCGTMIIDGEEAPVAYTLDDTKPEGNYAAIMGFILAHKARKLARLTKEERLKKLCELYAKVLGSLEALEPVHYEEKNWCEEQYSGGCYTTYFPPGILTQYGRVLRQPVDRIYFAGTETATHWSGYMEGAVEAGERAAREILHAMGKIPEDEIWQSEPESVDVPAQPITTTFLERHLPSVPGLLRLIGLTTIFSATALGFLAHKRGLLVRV
Procedure, shortened: (§1)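 HRP-coupled Amplex Red H2O2 assay, 50 mM sodium phosphate pH 7.4; compounds (8-point 1:3 series, final DMSO <1%) preincubated with enzyme 30 min at 37° C, then 200 uM Amplex Red, 1 U/mL HRP and substrate (MAO-A 0.5 mM tyramine; MAO-B 1 mM benzylamine) added. Resorufin fluorescence (ex 544/em 590 nm) read over 1-2 h; IC50 from four-parameter logistic fit.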

[2] = biological target: T2, recombinant human DAO (diamine oxidase) (Homo sapiens, UniProt P19801); experiment: Activity on recombinant human DAO, Amplex Red method, 1 mM putrescine substrate; conditions: recombinant human DAO, read-out: Inhibitory Activity (IC50, nM) DAO
T2 construct: purchased R&D systems
T2 sequence (P19801 20-751): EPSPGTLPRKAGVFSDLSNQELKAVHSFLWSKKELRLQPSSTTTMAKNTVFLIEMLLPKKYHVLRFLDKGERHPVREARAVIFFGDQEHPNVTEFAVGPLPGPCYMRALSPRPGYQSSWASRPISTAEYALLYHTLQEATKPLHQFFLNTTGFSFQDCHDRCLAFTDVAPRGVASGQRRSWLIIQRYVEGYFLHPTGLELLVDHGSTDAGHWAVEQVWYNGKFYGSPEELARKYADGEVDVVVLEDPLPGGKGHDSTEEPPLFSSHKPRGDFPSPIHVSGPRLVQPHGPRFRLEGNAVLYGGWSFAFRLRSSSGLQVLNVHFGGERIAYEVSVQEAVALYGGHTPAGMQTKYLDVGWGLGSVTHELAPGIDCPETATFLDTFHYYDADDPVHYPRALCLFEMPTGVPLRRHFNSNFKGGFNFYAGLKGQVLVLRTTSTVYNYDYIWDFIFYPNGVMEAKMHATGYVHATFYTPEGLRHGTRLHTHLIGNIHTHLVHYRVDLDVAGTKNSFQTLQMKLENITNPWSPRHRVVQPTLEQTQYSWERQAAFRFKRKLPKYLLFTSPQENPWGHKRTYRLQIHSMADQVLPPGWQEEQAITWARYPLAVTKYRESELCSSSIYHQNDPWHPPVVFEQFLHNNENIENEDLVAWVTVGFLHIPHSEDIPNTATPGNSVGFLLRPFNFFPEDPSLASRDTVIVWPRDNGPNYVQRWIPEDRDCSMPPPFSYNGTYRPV
Procedure, shortened: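 Inhibition of recombinant human DAO (diamine oxidase, R&D systems) was assessed with the Amplex Red Hydrogen Peroxide Assay Kit. Hydrogen peroxide produced from 1 mM putrescine was detected through an HRP-coupled reaction that converts Amplex Red into fluorescent resorufin, read at 544 nm excitation and 590 nm emission. IC50 values came from four-parameter logistic fits in GraphPad Prism.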

recombinant human VAP-1 = biological target: T3, recombinant human VAP-1 (Homo sapiens, UniProt Q16853); experiment: Activity on recombinant human VAP-1, Amplex Red HRP-coupled hydrogen peroxide assay, benzylamine substrate; conditions: recombinant human VAP-1, benzylamine substrate, read-out: Inhibitory Activity (IC50, nM) human VAP-1
T3 construct: purchased R&D systems
T3 sequence (Q16853 1-763): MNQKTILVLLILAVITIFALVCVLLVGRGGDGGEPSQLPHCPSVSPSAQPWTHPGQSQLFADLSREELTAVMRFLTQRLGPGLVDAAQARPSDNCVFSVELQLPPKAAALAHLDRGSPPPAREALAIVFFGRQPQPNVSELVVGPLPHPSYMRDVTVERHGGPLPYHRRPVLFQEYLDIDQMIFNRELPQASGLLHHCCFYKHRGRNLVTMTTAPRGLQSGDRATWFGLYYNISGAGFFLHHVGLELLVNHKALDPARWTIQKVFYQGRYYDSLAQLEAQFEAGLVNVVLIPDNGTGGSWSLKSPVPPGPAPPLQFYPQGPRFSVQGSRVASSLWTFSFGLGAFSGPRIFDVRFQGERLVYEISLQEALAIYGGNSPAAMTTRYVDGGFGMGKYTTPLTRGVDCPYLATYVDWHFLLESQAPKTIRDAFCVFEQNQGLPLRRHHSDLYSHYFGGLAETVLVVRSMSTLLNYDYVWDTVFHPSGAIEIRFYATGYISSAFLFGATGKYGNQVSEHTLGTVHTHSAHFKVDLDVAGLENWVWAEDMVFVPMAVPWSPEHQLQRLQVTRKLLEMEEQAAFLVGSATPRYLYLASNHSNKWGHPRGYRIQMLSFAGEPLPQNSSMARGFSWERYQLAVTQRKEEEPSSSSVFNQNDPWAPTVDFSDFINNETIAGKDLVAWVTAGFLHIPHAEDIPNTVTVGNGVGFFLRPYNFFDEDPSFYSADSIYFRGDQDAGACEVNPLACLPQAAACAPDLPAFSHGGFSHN
Procedure, shortened: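 8-point 1:3 dilutions, final DMSO <1%; 30 min enzyme preincubation, 37 °C, pH 7.4 phosphate. Start: 1 mM benzylamine + 200 uM Amplex Red + 1 U/mL HRP. Read ex544/em590 over 1-2 h; % rate decrease vs DMSO control, 4-parameter logistic IC50.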

[3] = biological target: T4, recombinant human MAO-A (monoamine oxidase-A) (Homo sapiens, UniProt P21397); experiment: Activity on recombinant human MAO-A, Amplex Red method, 0.5 mM tyramine substrate; conditions: read-out: Inhibitory Activity (IC50, nM) MAO-A
T4 construct: purchased Sigma-Aldrich
T4 sequence (P21397 1-527): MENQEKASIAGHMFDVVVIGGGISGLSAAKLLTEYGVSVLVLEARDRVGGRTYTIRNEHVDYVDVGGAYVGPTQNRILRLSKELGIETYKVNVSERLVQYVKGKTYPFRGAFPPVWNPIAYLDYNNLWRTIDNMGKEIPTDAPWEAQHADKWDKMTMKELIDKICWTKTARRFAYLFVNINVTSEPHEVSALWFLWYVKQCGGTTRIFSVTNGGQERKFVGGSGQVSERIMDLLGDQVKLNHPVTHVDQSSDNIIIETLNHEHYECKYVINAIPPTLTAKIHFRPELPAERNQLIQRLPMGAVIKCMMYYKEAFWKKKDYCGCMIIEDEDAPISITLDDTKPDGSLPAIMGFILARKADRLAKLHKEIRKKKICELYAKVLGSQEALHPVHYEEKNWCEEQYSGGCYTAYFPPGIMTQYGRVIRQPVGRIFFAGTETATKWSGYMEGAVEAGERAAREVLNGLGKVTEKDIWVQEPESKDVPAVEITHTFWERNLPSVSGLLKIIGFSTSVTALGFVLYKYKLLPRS
Procedure, shortened: as §1

[4] = 1 mM putrescine, * = between 10 and 100 nM, ** = between 300 and 1000 nM

SMILES	IC50 ([1]; 1 mM benzylamine)	IC50 [2, 4]	IC50 (recombinant human VAP-1; 30 min preincubation at 37° C.)	IC50 ([3]; 0.5 mM tyramine)	IC50 ([1]; 1 mM benzylamine substrate)	IC50 ([2]; 1 mM putrescine substrate)	IC50 (recombinant human VAP-1)	IC50 ([3]; 0.5 mM tyramine substrate)
NC/C(=C\F)Cn1ncn(-c2cccc(/C=C/c3cnc4c(c3)NC(=O)CO4)n2)c1=O [Example 241, 7-[(E)-2-[6-[1-[(E)-2-(aminomethyl)-3-fluoro-allyl]-5-oxo-1,2,4-triazol-4-yl]-2-pyridyl]vinyl]-1H-pyrido[2,3-b][1,4]oxazin-2-one hydrochloride]	–	–	–	–	> 10000 nM	1 nM	0.5 nM	> 100000 nM
NC/C(=C\F)Cn1ncn(-c2cccc(-c3ccc(-c4noc(C5CC5)n4)cc3)n2)c1=O [Example 178, 2-[(2E)-2-(aminomethyl)-3-fluoroprop-2-en-1-yl]-4-{6-[4-(5-cyclopropyl-1,2,4-oxadiazol-3-yl)phenyl]pyridin-2-yl}-2,4-dihydro-3H-1,2,4-triazol-3-one hydrochloride]	–	–	–	–	5490 nM	< 10 nM	1.4 nM	74000 nM
CC(C)c1nc(-c2cccc(-c3cccc(-n4cnn(C/C(=C/F)CN)c4=O)c3)c2)no1 [Example 65, 2-[(2E)-2-(aminomethyl)-3-fluoroprop-2-en-1-yl]-4-{3′-[5-(propan-2-yl)-1,2,4-oxadiazol-3-yl]biphenyl-3-yl}-2,4-dihydro-3H-1,2,4-triazol-3-one hydrochloride]	> 10000 nM	< 30 nM	0.93 nM	> 100000 nM	–	–	–	–
CC(=O)Nc1ccc(-c2cc(C)c(-n3cnn(C/C(=C/F)CN)c3=O)cn2)cc1 [Example 120, N-[4-(5-{1-[(2E)-2-(aminomethyl)-3-fluoroprop-2-en-1-yl]-5-oxo-1,5-dihydro-4H-1,2,4-triazol-4-yl}-4-methylpyridin-2-yl)phenyl]acetamide]	> 10000 nM	110 nM	1.4 nM	> 100000 nM	–	–	–	–
NC/C(=C\F)Cn1ncn(-c2cccc(-c3ccc(N4CCOCC4)c(Cl)c3)c2)c1=O [Example 76, 2-[(2E)-2-(aminomethyl)-3-fluoroprop-2-en-1-yl]-4-[3′-chloro-4′-(morpholin-4-yl)biphenyl-3-yl]-2,4-dihydro-3H-1,2,4-triazol-3-one hydrochloride]	> 10000 nM	< 100 nM	0.64 nM	> 100000 nM	–	–	–	–
NC/C(=C\F)Cn1ncn(-c2cccc(-c3ccc(-c4ncon4)cc3)c2)c1=O [Example 61, 2-[(2E)-2-(aminomethyl)-3-fluoroprop-2-en-1-yl]-4-[4′-(1,2,4-oxadiazol-3-yl)biphenyl-3-yl]-2,4-dihydro-3H-1,2,4-triazol-3-one]	998 nM	< 100 nM	0.65 nM	62000 nM	–	–	–	–
Cc1cc(-n2cnn(C/C(=C/F)CN)c2=O)cnc1-c1cccc(-c2nc[nH]n2)c1 [Example 116, 2-[(2E)-2-(aminomethyl)-3-fluoroprop-2-en-1-yl]-4-{5-methyl-6-[3-(1H-1,2,4-triazol-3-yl)phenyl]pyridin-3-yl}-2,4-dihydro-3H-1,2,4-triazol-3-one]	6020 nM	< 100 nM	0.72 nM	> 100000 nM	–	–	–	–

Other lines, results leading:

IC50 ([1]; 1 mM benzylamine)	IC50 [2, 4]	IC50 (recombinant human VAP-1; 30 min preincubation at 37° C.)	IC50 ([3]; 0.5 mM tyramine)	IC50 ([1]; 1 mM benzylamine substrate)	IC50 ([2]; 1 mM putrescine substrate)	IC50 (recombinant human VAP-1)	IC50 ([3]; 0.5 mM tyramine substrate)	SMILES
2100 nM	30 nM	1.7 nM	5700 nM	–	–	–	–	NC/C(=C/F)Cn1ncn(-c2nccs2)c1=O [Example 39, 2-[(2Z)-2-(aminomethyl)-3-fluoroprop-2-en-1-yl]-4-(1,3-thiazol-2-yl)-2,4-dihydro-3H-1,2,4-triazol-3-one hydrochloride]
< 0.01 nM	1 nM	0.47 nM	18400 nM	–	–	–	–	CC(=O)c1ccc(-c2ccc(-n3cnn(C/C(=C\F)CN)c3=O)cc2)s1 [Example 42, 4-[4-(5-acetylthiophen-2-yl)phenyl]-2-[(2Z)-2-(aminomethyl)-3-fluoroprop-2-en-1-yl]-2,4-dihydro-3H-1,2,4-triazol-3-one hydrochloride]
9.4 nM	14 nM	5.3 nM	> 100000 nM	–	–	–	–	Cc1cc(-n2cnn(C/C(=C\F)CN)c2=O)cnc1Br [Example 26, 2-[(2Z)-2-(aminomethyl)-3-fluoroprop-2-en-1-yl]-4-(6-bromo-5-methylpyridin-3-yl)-2,4-dihydro-3H-1,2,4-triazol-3-one hydrochloride]
1610 nM	100 nM	2.4 nM	> 100000 nM	–	–	–	–	NC/C(=C\F)Cn1ncn(-c2ccc(F)c(F)c2)c1=O [Example 10, 2-[(2E)-2-(aminomethyl)-3-fluoroprop-2-en-1-yl]-4-(3,4-difluorophenyl)-2,4-dihydro-3H-1,2,4-triazol-3-one hydrochloride]

Reference: patent US11492335B2, “Aryl or heteroaryl triazolone derivatives or salts thereof, or pharmaceutical compositions comprising the same” (YUHAN CORPORATION, priority 2018, dated 2022)
